# Data reported in ChEMBL document CHEMBL5614376, “Discovery of MT-1207: A Novel, Potent Multitarget Inhibitor as a Promising Clinical Candidate for the Treatment of Hypertension” (J Med Chem, 2024).
# pIC50, pKi: −log10 of the molar value. Calls of active or inactive are those of the source. No cut-off for these calls is given here.
# Legend:
# [1] = Tmax in male Sprague-Dawley rat at 100 mg/kg, po measured on day 1 by UP/LC/MS/MS analysis; format: ADME, organism-based; details: in vivo, time 1 day
# [2] = Half life in Sprague-Dawley rat at 1 mg/kg, po measured for 24 hrs by UPLC/MS/MS analysis; format: ADME, organism-based; details: in vivo
# [3] = Metabolic stability in Beagle dog liver microsomes assessed as drug elimination at 10 umol/L incubated for 5 mins in presence of NADPH by LC-MS/MS analysis; format: ADME, Canis lupus familiaris, Microsome; details: 10 µM, dose 10 µmol/L
# [4] = Plasma protein binding in human at 1 uM incubated for 30 mins; format: ADME, cell-free; details: read-out: PPB (converted)
# [5] = Metabolic stability in human liver microsomes assessed as compound remaining at 10 umol/L incubated upto 120 mins in presence of NADPH by LC-MS/MS analysis; format: ADME, Microsome; details: dose 10 µmol/L, read-out: Stability
# [6] = Metabolic stability in Beagle dog plasma assessed as enzymatic hydrolysis at 50 to 10000 ng/ml incubated upto 120 mins; format: ADME, cell-free, Canis lupus familiaris; details: 2 h, dose 50-10000 ng/ml
# [7] = target: T1, 5-hydroxytryptamine receptor 2A (Homo sapiens, UniProt P28223); test: Displacement of [3H]Ketanserin from recombinant human 5-HT2A receptor extracted from CHO cell membrane at 1 nM incubated for 60 mins by radioligand binding assay relative to control; format: cell membranes; details: filed as antagonist
# [8] = AUC (0 to t) in female Sprague-Dawley rat at 30 mg/kg, po qd treated for 13 weeks consecutively measured after recovery period on day 91 by UP/LC/MS/MS analysis; format: ADME, organism-based; details: in vivo, time 91 day
# [9] = Metabolic stability in rat liver microsomes assessed as drug elimination at 10 umol/L incubated for 5 mins in presence of NADPH by LC-MS/MS analysis; format: ADME, Microsome; details: 10 µM, dose 10 µmol/L
# [10] = Metabolic stability in rat plasma assessed as enzymatic hydrolysis at 50 to 10000 ng/ml incubated upto 120 mins; format: ADME, cell-free; details: 2 h, dose 50-10000 ng/ml
# [11] = target: T1, 5-hydroxytryptamine receptor 2A; test: Displacement of [3H]Ketanserin from recombinant human 5-HT2A receptor extracted from CHO cell membrane at 100 nM incubated for 60 mins by radioligand binding assay relative to control; format: cell membranes; details: filed as antagonist
# [12] = Acute toxicity in Sprague-Dawley rat assessed as change in morphology of animal at 250 to 1000 mg/kg, po single administration measured for 14 days; format: organism-based; details: in vivo, 336 h, dose 250-1000 mg/kg, time 14 day
# Rattus norvegicus [13] = test: Effect on postural hypotension in Sprague-Dawley rat assessed as change in systolic blood pressure at 5 mg/kg, po treated for >30 mins followed by induction of postural hypotension measured 20 secs after postural change (reference value: 129 +/- 11 mmHg); format: functional; details: time > 30.33 min, 0.5055 h
# [14] = Tmax in Sprague-Dawley rat at 1 mg/kg, po measured for 24 hrs by UPLC/MS/MS analysis; format: ADME, organism-based; details: in vivo
# [15] = AUC (0 to t) in female Sprague-Dawley rat at 100 mg/kg, po measured on day 1 by UP/LC/MS/MS analysis; format: ADME, organism-based; details: in vivo, time 1 day
# [16] = Plasma protein binding in Sprague-Dawley rat at 10 uM incubated for 30 mins; format: ADME, cell-free; details: read-out: PPB (converted)
# [17] = Metabolic stability in human liver microsomes assessed as drug metabolism at 10 umol/L incubated upto 120 mins in presence of NADPH by LC-MS/MS analysis; format: ADME, Microsome; details: 2 h, 10 µM, dose 10 µmol/L
# [18] = Tmax in male Sprague-Dawley rat at 10 mg/kg, po measured on day 1 by UP/LC/MS/MS analysis; format: ADME, organism-based; details: in vivo, time 1 day
# [19] = target: T1, 5-hydroxytryptamine receptor 2A; test: Displacement of [3H]Ketanserin from recombinant human 5-HT2A receptor extracted from CHO cell membrane incubated for 60 mins by radioligand binding assay; format: cell membranes
# [20] = Tmax in Sprague-Dawley rat at 3 mg/kg, po measured for 24 hrs by UPLC/MS/MS analysis; format: ADME, organism-based; details: in vivo
# Rattus norvegicus [21] = test: Effect on serum urea level in 2K2C renovascular hypertensive Sprague-Dawley rat model at 10 mg/kg, po measured after 9 weeks by biochemical analysis; format: functional, organism-based
# [22] = Cmax in male Sprague-Dawley rat at 30 mg/kg, po qd treated for 13 weeks consecutively measured after recovery period on day 91 by UP/LC/MS/MS analysis; format: ADME, organism-based; details: in vivo, time 91 day
# Rattus norvegicus [23] = test: Effect on postural hypotension in Sprague-Dawley rat assessed as change in systolic blood pressure at 10 mg/kg, po treated for >30 mins followed by induction of postural hypotension measured 10 secs after postural change (reference value: 127 +/- 12 mmHg); format: functional; details: time > 30.17 min, 0.5028 h
# [24] = Toxicity in Sprague-Dawley rat assessed as body weight anomaly at 10 mg/kg, po qd treated for 13 weeks consecutively measured after 4 week recovery period; format: organism-based; details: in vivo, 2856 h, time 17 weeks
# Rattus norvegicus [25] = test: Effect on postural hypotension in Sprague-Dawley rat assessed as change in systolic blood pressure at 10 mg/kg, po treated for >30 mins followed by induction of postural hypotension measured 3 secs after postural change (reference value: 124 +/- 10 mmHg); format: functional; details: time > 30.05 min, 0.5008 h
# [26] = Cmax in male Sprague-Dawley rat at 100 mg/kg, po measured on day 1 by UP/LC/MS/MS analysis; format: ADME, organism-based; details: in vivo, time 1 day
# Rattus norvegicus [27] = test: Effect on postural hypotension in Sprague-Dawley rat assessed as change in systolic blood pressure at 5 mg/kg, po treated for >30 mins followed by induction of postural hypotension measured 3 secs after postural change (reference value: 124 +/- 10 mmHg); format: functional; details: time > 30.05 min, 0.5008 h
# [28] = AUC (0 to t) in male Sprague-Dawley rat at 10 mg/kg, po measured on day 1 by UP/LC/MS/MS analysis; format: ADME, organism-based; details: in vivo, time 1 day
# [29] = Plasma protein binding in Sprague-Dawley rat at 1 uM incubated for 30 mins; format: ADME, cell-free; details: read-out: PPB (converted)
# [30] = Toxicity in Sprague-Dawley rat at 10 to 100 mg/kg, po qd treated for 13 weeks; format: organism-based; details: in vivo, dose 10-100 mg/kg
# [31] = Tmax in male Sprague-Dawley rat at 10 mg/kg, po qd treated for 13 weeks consecutively measured after recovery period on day 91 by UP/LC/MS/MS analysis; format: ADME, organism-based; details: in vivo, time 91 day
# [32] = AUC (0 to t) in male Sprague-Dawley rat at 10 mg/kg, po qd treated for 13 weeks consecutively measured after recovery period on day 91 by UP/LC/MS/MS analysis; format: ADME, organism-based; details: in vivo, time 91 day
# [33] = AUC (0 to t) in Sprague-Dawley rat at 3 mg/kg, po measured for 24 hrs by UPLC/MS/MS analysis; format: ADME, organism-based; details: in vivo
# Rattus norvegicus [34] = test: Effect on postural hypotension in Sprague-Dawley rat assessed as change in systolic blood pressure at 5 mg/kg, po treated for >30 mins followed by induction of postural hypotension measured immediately after postural change (reference value: 131 +/- 9 mmHg); format: functional; details: 0.5 h
# [35] = Half life in Sprague-Dawley rat at 3 mg/kg, po measured for 24 hrs by UPLC/MS/MS analysis; format: ADME, organism-based; details: in vivo
# [36] = Cmax in male Sprague-Dawley rat at 10 mg/kg, po measured on day 1 by UP/LC/MS/MS analysis; format: ADME, organism-based; details: in vivo, time 1 day
# T1 sequence (P28223 whole entry): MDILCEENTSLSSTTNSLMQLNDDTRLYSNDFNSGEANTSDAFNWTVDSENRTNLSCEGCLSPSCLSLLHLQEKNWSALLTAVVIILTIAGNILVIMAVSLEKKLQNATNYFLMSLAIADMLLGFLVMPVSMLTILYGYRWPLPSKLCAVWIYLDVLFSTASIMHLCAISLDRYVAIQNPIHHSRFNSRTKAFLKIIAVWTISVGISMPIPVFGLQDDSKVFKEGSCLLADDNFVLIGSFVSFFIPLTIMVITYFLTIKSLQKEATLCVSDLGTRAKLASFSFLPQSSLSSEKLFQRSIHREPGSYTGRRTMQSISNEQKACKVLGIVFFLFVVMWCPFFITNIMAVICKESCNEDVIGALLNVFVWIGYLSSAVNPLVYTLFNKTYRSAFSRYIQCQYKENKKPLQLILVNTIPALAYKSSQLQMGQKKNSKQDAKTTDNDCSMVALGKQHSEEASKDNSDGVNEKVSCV
smiles,measurement,setting,value
Cl.c1ccc2c(c1)nnn2CCCCN1CCN(c2nsc3ccccc23)CC1,Tmax,[1],1.3 h
same,half-life,[2],1.5 h
same,Drug excretion,[3],Active
same,"fraction unbound at 0.5 h, 1 µM",[4],0.004
same,"remaining at 2 h, 10 µM",[5],23.9%
same,Stability,[6],Stable
same,inhibition,[7],43.7%
same,AUC(0-t) at 2184 h,[8],1470 ng·h/mL
same,Drug excretion,[9],Active
same,Stability,[10],Stable
same,inhibition,[11],99%
same,Activity,[12],Non-Toxic
same,Activity,Rattus norvegicus [13],83 mmHg
same,Tmax,[14],9.6 min
same,AUC(0-t) at 24 h,[15],7910 ng·h/mL
same,"fraction unbound at 0.5 h, 10 µM",[16],0.017
same,Drug metabolism,[17],Metabolite_Detected
same,Tmax,[18],1 h
same,pIC50,[19],9.57
same,pKi,[19],10.10
same,Tmax,[20],2 h
same,Activity,Rattus norvegicus [21],Active
same,Cmax,[22],238 ng/mL
same,Activity,Rattus norvegicus [23],84 mmHg
same,Activity,[24],Non-Toxic
same,Activity,Rattus norvegicus [25],81 mmHg
same,Cmax,[26],347 ng/mL
same,Activity,Rattus norvegicus [27],80 mmHg
same,AUC(0-t) at 24 h,[28],44.5 ng·h/mL
same,"fraction unbound at 0.5 h, 1 µM",[29],0.019
same,NOAEL at 2184 h,[30],100 mg/kg
same,Tmax,[31],1.3 h
same,AUC(0-t) at 2184 h,[32],112 ng·h/mL
same,AUC(0-t) at 24 h,[33],421 ng·h/mL
same,Activity,Rattus norvegicus [34],89 mmHg
same,half-life,[35],2.15 h
same,Cmax,[36],19.2 ng/mL
